Target: T1, Disintegrin and metalloproteinase domain-containing protein 10 (Homo sapiens, UniProt O14672)
T1 sequence (O14672 whole entry): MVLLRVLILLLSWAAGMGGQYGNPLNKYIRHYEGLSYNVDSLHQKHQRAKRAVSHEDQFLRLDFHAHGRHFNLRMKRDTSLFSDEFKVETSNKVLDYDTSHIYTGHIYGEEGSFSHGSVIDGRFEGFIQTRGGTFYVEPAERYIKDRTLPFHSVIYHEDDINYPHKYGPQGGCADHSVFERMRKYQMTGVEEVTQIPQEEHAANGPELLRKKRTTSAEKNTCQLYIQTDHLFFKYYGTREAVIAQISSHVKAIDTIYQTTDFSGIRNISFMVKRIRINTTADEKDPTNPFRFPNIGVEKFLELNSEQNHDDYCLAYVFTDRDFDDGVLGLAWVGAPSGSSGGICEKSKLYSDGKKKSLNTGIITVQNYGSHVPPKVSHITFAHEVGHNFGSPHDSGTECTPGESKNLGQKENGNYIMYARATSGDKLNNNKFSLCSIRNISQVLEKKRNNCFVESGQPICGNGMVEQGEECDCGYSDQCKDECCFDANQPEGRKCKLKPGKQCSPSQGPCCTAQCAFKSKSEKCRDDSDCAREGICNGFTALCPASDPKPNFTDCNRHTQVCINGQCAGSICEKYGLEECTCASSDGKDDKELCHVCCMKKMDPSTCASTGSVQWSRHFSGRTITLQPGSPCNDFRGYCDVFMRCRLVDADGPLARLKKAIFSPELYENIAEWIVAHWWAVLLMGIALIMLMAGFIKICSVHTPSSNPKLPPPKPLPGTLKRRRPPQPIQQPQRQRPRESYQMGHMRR
Assay: inhibition of ADAM10 peptide cleavage – biochemical, FRET peptide substrate, recombinant human ADAM10, selectivity assay for ADAM17 exosite inhibitor project, dose response (AID 743259)

IC50 [µM]	SMILES
37.7	CCOc1ccc(NC(=O)Cc2sc(=O)n(-c3ccccc3)c2O)cc1
11.1	Cn1c(-c2sccc2OCc2ccc(Cl)cc2Cl)n[nH]c1=S
47.8	O=C(Cc1sc(=O)n(-c2ccccc2)c1O)Nc1ccccc1 [2-(2,4-diketo-3-phenyl-thiazolidin-5-yl)-N-phenyl-acetamide]
69.5	COc1cccc(C2c3oc(CO)cc(=O)c3OC(=N)C2C#N)c1 (configuration not stated) [2-Amino-6-hydroxymethyl-4-(3-methoxy-phenyl)-8-oxo-4,8-dihydro-pyrano[3,2-b]pyran-3-carbonitrile]
69.5	COc1ccc(NC(=O)c2oc3ccccc3c2NC(=O)C(C)(C)C)cc1 [3-(2,2-dimethylpropanoylamino)-N-(4-methoxyphenyl)-1-benzofuran-2-carboxamide]
2.58	CCOc1cc(C(c2c(C)[nH][nH]c2=O)c2c(C)[nH][nH]c2=O)ccc1O [4-[(3-ethoxy-4-hydroxyphenyl)-(3-methyl-5-oxo-1,2-dihydropyrazol-4-yl)methyl]-5-methyl-1,2-dihydropyrazol-3-one]
69.5	Cc1cccc(NNC2=c3cc(Br)ccc3=NC2=O)c1 [5-bromo-3-[2-(3-methylphenyl)hydrazinyl]indol-2-one]
28.5	CC1CCCN(CCCNC(=O)c2coc3nc4ccccc4nc23)C1 (configuration not stated) [MLS000046706]
69.5	O=C1OCCN1C(=O)C1=[N+](c2ccc(Br)cc2)N[C-](c2ccccc2)[C@H]1c1ccc([N+](=O)[O-])cc1 [SMR000327268]
32.5	CC(=NNC(=N)Sc1cc(O)n(-c2ccc(Br)cc2)c1O)c1cccs1 [[1-(4-bromophenyl)-2,5-bis(oxidanylidene)pyrrolidin-3-yl] N''-(1-thiophen-2-ylethylideneamino)carbamimidothioate]
9.95	CC(=NNC(=N)Sc1cc(O)n(-c2ccccc2)c1O)c1cccs1 [[2,5-bis(oxidanylidene)-1-phenyl-pyrrolidin-3-yl] N'-[(E)-1-thiophen-2-ylethylideneamino]carbamimidothioate]
69.5	COC(=O)c1cccc(Cn2c(Cl)c(CN=Nc3ccccc3C)sc2=O)c1 [methyl 3-[[4-chloro-5-[[(2-methylphenyl)hydrazinylidene]methyl]-2-oxo-1,3-thiazol-3-yl]methyl]benzoate]

Reference: BindingDB's records for doi:10.7270/Q25B013C (The Scripps Research Institute Molecular Screening Center, 2014)
